Values of other authors as cited in patent US20260069581A1, “METHODS AND COMPOSITIONS FOR CANCER THERAPY” (OHIO STATE INNOVATION FOUNDATION, priority 2020, published 2026).

Experiments:
tubulin acetylation = conditions: concentration as high as 50 μM, Ref. 25; cited from earlier work
AML = conditions: low micromolar doses, Ref. 25; cited from earlier work
[1] = system: cell lines derived from T-cell lymphomas or leukemias; conditions: Ref. 25, cited from earlier work
Rad51 = conditions: Ref. 33; cited from earlier work
[2] = system: prostate cancer and lung adenocarcinoma cells; conditions: Ref. 32; cited from earlier work

For `COc1ccc(Cn2ccc3ccc(C(=O)NO)cc32)cc1` [PCI-34051], which tubulin acetylation (tubulin acetylation) is on record?
Its tubulin acetylation is “did not induce significant tubulin acetylation”.

What about the AML death (AML) of the same compound?
Its AML death is “failed to induce AML death”.

What about the apoptosis [1] of the same compound?
Its apoptosis is “induces caspase-dependent apoptosis”.

And the GI50 ([1]; cell lines derived from T-cell lymphomas or leukemias)?
Its GI50 is 2.4 to 4 µM.

Which Rad51 expression (Rad51) does the source give for `CN(C)Cc1c(C(=O)NCCOc2ccc(C(=O)NO)cc2)oc2ccccc12` [PCI-2481] here?
Its Rad51 expression is “reduction of Rad51 expression”.

With `O=C(CCCCCCC(=O)Nc1ccccc1)NO` [vorinostat] as the compound, how does the “Rad50 and MRE11 protein levels” value [2] read?
The value was “downregulates”.
